pKi: −log10 of the molar value.
Assays:
[1] = species on record: Cavia porcellus; assay: Compound is evaluated for the inhibition of guinea pig ileum contraction caused by 25 ng/mL angiotensin I; type: functional, organism-based
[2] = Enzyme kinetic inhibition constant against tripeptide, Angiotensin I as substrate in a competition inhibition assay
[3] = Enzyme kinetic inhibition constant against tripeptide, Hip-His-Leu as substrate

Row | SMILES | IC50 [1] | pKi [2] | pKi [3]
1 | O=C(N[C@@H](Cc1ccccc1)C(=O)CCC(=O)N1CCC[C@H]1C(=O)O)c1ccccc1 | 0.5 µg/mL | 6.06 | 6.97
2 | C[C@H](CS)C(=O)N1CCC[C@H]1C(=O)O [CAPTOPRIL] | 0.05 µg/mL |  | 7.15
